Measurements from US4508728A, “Method of treating inflammatory diseases” (priority 1984, dated 1985).

Assays:
[1] = Solubility in water; format: physicochemical
[2] = tested on: decubital ulcer; test: Clinical Case No. 6: decubital ulcer; format: in vivo, human; design: key: -: Non effective; +: Effective; ++: Remarkably effective
Text: 1% homocarnosine ointment was applied to the cases of decubital ulcer as follows.

[3] = tested on: aftha stomatitis; test: Clinical Case No. 2: aftha stomatitis; format: in vivo, human; design: key: The patients in whom the pain disappeared immediately after injection of homocarnosine solution with no subsequent pain complaints on the following day, and the ulcerated area had shrunk postoperatively were assessed as favorable ++; conditions: 0.1 ml of 0.5% solution injected
Description: Patients who complained of the aftha stomatitis were injected with 0.5% homocarnosine solution.
The patients in whom the pain disappeared immediately after injection of homocarnosine solution with no subsequent pain complaints on the following day, and the ulcerated area had shrunk postoperatively were assessed as favorable ++.

[4] = tested on: hemorrohoid; test: Clinical Case No. 7: hemorrhoid; format: in vivo, human; design: key: -: Non effective; +: Effective; ++: Remarkably effective; conditions: suppository 10 mg
Description: 1.7 g suppository, one suppository containing 10 mg homocarnosine, was used for the following patients suffering from hemorrohoid.
*Conjointly administered with 0.5% homocarnosine ointment.

[5] = tested on: granulation; test: Granulation formation, formalin filter paper method (FFP method), with quantitative analysis of hydroxyprolin; format: in vivo, rat (Wister strain male); conditions: for Hydroxyproline / Wet weight of granulation: once daily for 7 days
Text: The promotive action of granulation by homocarnosine was examined by a routine formalin filter paper method (FFP method) and the quantitative analysis of hydroxyprolin. For experimental purposes, use was made of groups of 5 or 6 six-week old Wister strain male rats weighing around 170 g each. The hair was sheared from the backs of these animals using clippers and under ether anesthesia they were given an incision of about 1 cm by a shap surgical knife along the dorsal median line. A piece of filter paper (No. 26 product by Toyo Filter Paper Co.) was cut into circles having a diameter of 6.7 mm which were immersed in a 7% formalin solution. In each rat, these filter paper circles, 4 altogether, were inserted underneath the skin of the right and left scapular areas and under the skin about 4 cm to the rear or these areas, two circles on the right side and two on the left side. A dose of penicillin was given to prevent the possibility of infective suppuration subcutaneously and the incised portion was sutured by use of clips. On the second day after the insertion of formalin immersed filter paper, the sutures were removed and on the seventh day they were put to death under ether anesthesia by cutting the carotid vessels, from which the mass of granulations that had been formed by formalin immersed filter paper was taken out. After the entire granular mass containing filter paper was measured for wet weight, the mass from the left scapular area was used for the quantitative analysis of hydroxyprolin. Homocarnosine was prepared in an isotonic solution and was injected into the animals either subcutaneously or peritoneally once daily for seven days after the suture. When an oral administration was needed, it was made in a 15% solution and was poured into the esophagus. The mass of granulations freed from the filter paper was defatted by ethanol-ether and after being rendered in the gelatin state by an autoclave it was added with concentrated hydrochloric acid and was hydrolyzed overnight at a temperature of 105° to 110° C. After it was thickened and dried at 105° to 110° C., the product was added with 0.02N hydrochloric acid and its hydroxyprolin was quantified by a Hitachi-835 amino acid automatic analyzer in an effort to estimate the amount of collagen that had been synthesized.

[6] = tested on: angulus infectiosus; test: Clinical Case No. 3: angulus infectiosus; format: in vivo, human; design: key: those cases in which the wounds became closed on the day following homocarnosine administration were judged as ++; those in which three applications were further needed before favorable results were obvious were judged as +
Text: 0.5% homocarnosine in the form of a paste was applied in cases of angulus infectiosus in a dosage of 0.8 g on the basis of three times daily.
In assessing the effect of treatment, those cases in which the wounds became closed on the day following homocarnosine administration were judged as ++ and those in which three applications were further needed before favorable results were obvious were judged as +.

[7] = tested on: inflammation of respiratory tract; test: Clinical Case No. 8: inflammation of respiratory tract, nebulizer; format: in vivo, human; design: key: -: Non effective; +: Effective; ++: Remarkably effective; conditions: 0.1% solution
Text: 0.1% homocarnosine solution in physiological saline was used for the following patients suffering from inflammation of respiratory tract with the aid of nebulizer.

[8] = tested on: surgical wounds; test: Wound healing: tensile strength of sutured surgical incision on the 7th day; format: in vivo, rat (Wister strain male); conditions: for Tensile Strength, % of control / Tensile Strength, X ± S.E.: daily for 7 days
Description: The healing effect of surgical wounds by homocarnosine was assessed in the following manner. Six-week old Wister strain male rats weighing around 170 g each were used. The rats which had their backs denuded over an extensive area by clippers were given an incision of about 4 cm by a sharp surgical knife along the dorsal medial line under ether anesthesia. A dosage of penicillin was administered to prevent the possibility of infective suppuration and the incision was uniformly sutured with silk threads at 3 spots. Homocarnosine was made into isotonic solution which was subcutaneously injected every day into 8 places on both sides of the incision equally for 7 days. Physiologic saline was employed as a control. The threads were removed 4 days after the formation of the incisions and the experimental animals were put to death on the 7th day under ether anesthesia, and 3 pieces of dosal skin, 3 cm in length and 1 cm in width each, were surgically cut off in such manner that the incision line lay at the middle of the piece. One side of each piece of skin was fixed and the other was pulled and the force required to separate the skin at the point the incision had been made was taken to indicate the tensile strength.

[9] = tested on: dermatitis; test: Clinical Case No. 9: various types of dermatitis; format: in vivo, human; design: key to Effect: -: Non effective; +: Effective; ++: Remarkably effective
Text: 0.5% homocarnosine in the form of an ointment was applied to the following patients suffering from various types of dermatitis.

[10] = tested on: cervical erosion; test: Clinical Case No. 5: cervical erosion; format: in vivo, human; conditions: suppository 20 mg
Description: 1.7 g suppository, one suppository containing 20 mg homocarnosine, was used for the following patients suffering from cervical erosion.

[11] = tested on: herpes zoster; test: Clinical Case No. 4: herpes zoster; format: in vivo, human; conditions: person
Text: 5% homocarnosine paste was applied to a case of herpes zoster.
Region: The herpes zoster extended from the lower part of right breast to the side of body.
Course of the complaint: The patient came for consultation after three days of subjective complaint. 1 g of 5% homocarnosine paste was applied to the diseased region.

[12] = tested on: dental extraction wounds; test: Clinical Case No. 1: dental extraction wound; format: in vivo, human; design: key to Cure (Wound Healing): ++: Found to be highly effective compared with ordinary therapy.; +: Effective; -: Noneffective; key to Postoperative pains, 2 hours / Postoperative pains, 12 hours / Postoperative pains, 24 hours: -: No subjective pains.; ±: Though subjective pains were present, no analgesic was used.; +: Subjective pains and an analgesic was administered
Description: 0.5% homocarnosine injection solution was administered to the wound brought about by a dental extraction.

[13] = case 1, horizontal impaction, 0.3 ml of 0.5% injection solution
[14] = case 2, alveolar osteitis, 0.3 ml of 0.5% injection solution
[15] = case 3, traumatic bone fracture, 0.1 ml of 0.5% injection solution
[16] = case 4, dental root cyst, 0.2 ml of 0.5% injection solution
[17] = case 5, alveolar osteitis, 0.3 ml of 0.5% injection solution

NCCCC(=O)N[C@@H](Cc1cnc[nH]1)C(=O)O [Homocarnosine, L-histidinyl-γ-aminobutylic acid]
Solubility in water [1]: readily soluble in water
Effect ([2]; case 1, back (2 × 4 cm), 1% ointment 0.5-1.0 g once daily for 4 days): ++
Effect ([2]; case 2, nates (2 × 3 cm), 1% ointment 0.5-1.0 g once daily for 8 days): ++
Effect ([3]; case 1, isolative aphtha): ++
Effect ([3]; case 2, tip of the tongue, person): ++
Effect ([3]; case 3, lower surface of the tongue, person): ++
Effect ([4]; case 1, ractal bleeding, 1 tablet daily for 4 days, conjointly with 0.5% homocarnosine ointment): ++
Effect ([4]; case 2, inner hemorrhoids, 1 tablet daily for 14 days): ++
Hydroxyproline ([5]; 3 mg/kg i.p., 7 granuloma): 97.8 ± 10.1 % of control
Wet weight of granulation ([5]; 3 mg/kg i.p., 18 granuloma): 96.1 ± 5.6 % of control
Hydroxyproline ([5]; 10 mg/kg i.p., 9 granuloma): 127.6 ± 14.5 % of control
Wet weight of granulation ([5]; 10 mg/kg i.p., 20 granuloma, p < 0.01): 121.3 ± 5.7 % of control
Hydroxyproline ([5]; 30 mg/kg i.p., 8 granuloma): 123.9 ± 8.0 % of control
Wet weight of granulation ([5]; 30 mg/kg i.p., 19 granuloma, p < 0.025): 126.6 ± 7.3 % of control
Wet weight of granulation ([5]; 50 mg/kg i.p., 20 granuloma): 133.7 ± 7.2 % of control
Wet weight of granulation ([5]; 70 mg/kg i.p., 24 granuloma): 131.7 ± 7.8 % of control
Wet weight of granulation ([5]; 90 mg/kg i.p., 20 granuloma): 135.6 ± 7.2 % of control
Granulation formation (in words) ([5]; 10, 30, 50, 70 and 90 mg/kg (i.p.)): effective in promoting granulation formation
Hydroxyprolin amount (in words) ([5]; relative to wet weight of granulations): increased in proportion to an increase in the wet weight of granulations
Effect ([6]; person five, right, 0.5% paste 0.8 g × 3): ++
Effect ([6]; person four, right and left, 0.5% paste 0.8 g × 6): +
Effect ([6]; person one, right, 0.5% paste 0.8 g × 3): ++
Effect ([6]; person three, right, 0.5% paste 0.8 g × 3): ++
Effect ([6]; person two, right and left, 0.5% paste 0.8 g × 6): +
Effect ([6]; person, left, 0.5% paste 0.8 g × 3): ++
Effect ([7]; case 1, allergic rhinitis, 0.8 ml × 2): ++
Effect ([7]; case 2, inflamed respiratory tract, 1.0 ml × 1): ++
Effect ([7]; case 3, inflamed respiratory tract, 1.0 ml × 3): ++
Effect ([7]; case 4, tonsillitis, 1.0 ml × 3): ++
Effect ([7]; case 5, asthma, 1.0 ml twice daily for 10 days): ++
Tensile Strength, % of control ([8]; 0.06 mg/rat i.d., 18 skins): 96.1 % of control
Tensile Strength, X ± S.E. ([8]; 0.06 mg/rat i.d., 18 skins): 436.8 ± 27.6
Tensile Strength, % of control ([8]; 0.6 mg/rat i.d., 15 skins): 108.6 % of control
Tensile Strength, X ± S.E. ([8]; 0.6 mg/rat i.d., 15 skins): 493.3 ± 27.5
Tensile Strength, % of control ([8]; 6.0 mg/rat i.d., 18 skins): 118.8 % of control
Tensile Strength, X ± S.E. ([8]; 6.0 mg/rat i.d., 18 skins, p < 0.01): 539.6 ± 41.5
Effect on surgical wounds, tensile strength on the 7th day (in words) ([8]; subcutaneous, 0.6 and 6.0 mg/rat): efficacy is indicated by the tensile strength of wounds on the 7th day
Effect ([9]; case 1, allergic dermatitis, 0.5% ointment 1.0 g twice daily): ++
Effect ([9]; case 2, geriatric itchiness, 0.5% ointment 0.5 g before sleeping): ++
Partial ulcer recovery (in words) ([9]; case 2, geriatric itchiness, 0.5% ointment 0.5 g, partial, after one application): ulcer recovery was noted
Effect ([9]; case 3, eczema, 0.5% ointment 1.0 g twice daily for 2 days): ++
Effect ([9]; case 4, burn (back of left hand), 0.5% ointment 1.0 g once daily for 4 days): ++
Effect (in words) ([10]; case 1, C II, 2 tablets in one day): Cured
Effect (in words) ([10]; case 2, C IIIa, 1 tablet daily for 7 days): Cured
Effect (in words) ([10]; case 3, C IIIb, 2 tablets daily for 7 days): Cured
Effect (in words) ([10]; case 4, C IIIc, 2 tablets daily for 14 days): Cured
Relapse ([11]; 1 g of 5% paste): no relapse of the symptom
Pains ([11]; 1 g of 5% paste, in about one hour): the pains disappeared completely
Cysts ([11]; 5% paste, 1 g five times daily): discolored and dry
Herpes symptom ([11]; 5% paste, 1 g five times daily): cured after seven days
Cure (Wound Healing) [12, 13]: ++
Postoperative pains, 2 hours [12, 13]: -
Postoperative pains, 12 hours [12, 13]: ±
Postoperative pains, 24 hours [12, 13]: -
Cure (Wound Healing) [12, 14]: ++
Postoperative pains, 2 hours [12, 14]: -
Postoperative pains, 12 hours [12, 14]: -
Postoperative pains, 24 hours [12, 14]: -
Cure (Wound Healing) [12, 15]: ++
Postoperative pains, 2 hours [12, 15]: -
Postoperative pains, 12 hours [12, 15]: -
Postoperative pains, 24 hours [12, 15]: -
Cure (Wound Healing) [12, 16]: ++
Postoperative pains, 2 hours [12, 16]: -
Postoperative pains, 12 hours [12, 16]: +
Postoperative pains, 24 hours [12, 16]: -
Cure (Wound Healing) [12, 17]: ++
Postoperative pains, 2 hours [12, 17]: -
Postoperative pains, 12 hours [12, 17]: -
Postoperative pains, 24 hours [12, 17]: -
